# Source: US8829014B2, “Thiazole and thiophene analogues, and their use in treating autoimmune diseases and cancers” (Board of Supervisors of Louisiana State University and …, priority 2006, dated 2014)
# Marks after values point to notes of the source that are not given here.
# What was measured:
# Assay type in all cases: cell-based
# NF-κB = assay: TNF-α-induced NF-κB-dependent luciferase expression in HEK cells; parameters: NF-κB % inhibition: concentration or dose not given beside the values; conditions: TNF-α-induced; compound added 1 h before inducer, luciferase 24 h later; normalized to DMSO vehicle
# [1] = tested on: vascular smooth muscle cells (VSMC); assay: Trypan blue viability count in VSMC; conditions: VSMC, 10 μM, 48 h, relative to vehicle
# Description: (§1) Additional compounds have also been tested for their ability to inhibit both TNF-α-induced NF-κB—expression and PMA-induced AP-1 expression. In both tests, the compound was added for 1 h, then the appropriate inducer was added, and luciferase activity was monitored 24 h later. Values were then normalized to the vehicle control, DMSO. Following the initial luciferase screens, studies were conducted to assess the cytotoxicity of the compounds in normal cells such as VSMC, HUVEC, or HPT cells. Human umbilical vein endothelial cells (HUVEC) represent the normal endothelium, vascular smooth muscle cells (VSMC) were represented by cells from the adult rat aorta, and human proximal tubule (HPT) cells represent the normal proximal tubule in vivo. These cells were grown to near confluency in multi-well plates, and were then treated for 48 h with either vehicle (0.1% DMSO) or 10 μM of each drug candidate. Following treatment, the media from the VSMC and HUVEC incubations were removed, and the amount of lactate dehydrogenase (LDH) released into the medium was determined with a commercial kit. LDH is normally confined to the cytosol, and its release represents “leakiness” of the plasma membrane. LDH activity was expressed as % increase over vehicle-treated cells. In another assay of viability, the treated VSMC and HUVEC were removed by trypsinization and treated with trypan blue, a dye that is taken up only by dead cells. The number of both live and dead cells was counted using an automated cell viability analyzer. The % decrease in numbers of viable cells was determined. Toxicity in the treated HPT cells was determined by the ethidium homodimer (EthHD) uptake assay. EthHD is a fluorescent dye that is excluded from live cells, but is taken up by cells that have lost permeability barriers. Inside the cell, EthHD produces a strong fluorescent signal, which is proportional to the number of dead cells. Results were expressed as a % increase in cell death over vehicle-treated cells. The lead compounds were also tested in two pairs of cell lines from either the skin or prostate, one tumorigenic and one non-tumorigenic, to test for any differences in toxicity or heightened sensitivity in the tumorigenic lines. The cells were treated for 48 h with vehicle (0.1% DMSO) or 10 μM of each drug candidate. Following treatment, the viability of the cells was determined by the MTT assay. In this assay, the MTT dye is converted only in viable cells by intracellular enzymes to a colorimetric product that is quantitated by a microplate reader.
# [2] = tested on: Human umbilical vein endothelial cells (HUVEC); assay: LDH release cytotoxicity in HUVEC; conditions: HUVEC, 10 μM, 48 h, relative to vehicle
# Description: as §1
# (§2) For the results in Table 13, cells were grown to near confluency in multi-well plates, then treated for 48 h with either vehicle (0.1% DMSO) or 10 μM of each drug candidate. Following treatment, the media from the VSMC and HUVEC incubations were removed, and the amount of lactate dehydrogenase (LDH) released into the medium was determined with a commercial kit and expressed as a % increase over vehicle-treated cells. HPT toxicity was determined by the ethidium homodimer (EthHD) uptake assay. Inside the cell, EthHD produces a strong fluorescent signal, which is proportional to the amount of cell death, expressed as a % increase in cell death over vehicle-treated cells. The lead compounds were also tested in two pairs of cell lines from the skin or prostate, one tumorigenic and one non-tumorigenic, to test for differing toxicity or heightened sensitivity in the tumorigenic lines. The cells were treated for 48 h with vehicle (0.1% DMSO) or 10 μM of each drug candidate, and the viability of the cells was determined by the MTT assay, expressed as a % decrease in viability compared to vehicle-treated cells. The in vivo inflammation model measured the % inhibition of rat paw edema induced by carageenan injection.
# [3] = tested on: cell lines from the skin, one tumorigenic and one non-tumorigenic; assay: MTT viability in skin cell line pair, tumorigenic and non-tumorigenic
# Description: as §1, §2
# AP-1 = assay: PMA-induced AP-1 luciferase expression in HEK cells; conditions: PMA-induced; compound added 1 h before inducer, luciferase 24 h later; normalized to DMSO vehicle
# [4] = tested on: vascular smooth muscle cells (VSMC); assay: LDH release cytotoxicity in VSMC; conditions: VSMC, 10 μM, 48 h, relative to vehicle
# Description: as §1, §2
# [5] = tested on: human proximal tubule (HPT) cells; assay: Ethidium homodimer (EthHD) uptake toxicity assay in HPT cells; conditions: 10 μM, 48 h, relative to vehicle
# Description: as §1, §2
# [6] = tested on: Human umbilical vein endothelial cells (HUVEC); assay: Trypan blue viability count in HUVEC; conditions: HUVEC, 10 μM, 48 h, relative to vehicle
# Description: as §1
SMILES,NF-κB % inhibition (NF-κB),Viable Cells % Decrease VSMC [1],LDH release % Increase HUVEC [2],Viability (MTT) % Decrease HaCaT [3],Viability (MTT) % Decrease SRB12-p9 [3],AP-1 % inhibition (AP-1),LDH release % Increase VSMC [4],Cell Death (EthHD) % Increase HPT [5],Viable Cells % Decrease HUVEC [6]
CNc1nc(C)c(-c2nc3ccccc3c(=O)n2-c2ccccc2C)s1 [PMCR19],18%,29# %,14%,6%,21%,67** %,4%,63# %,20%
Cc1ccccc1-n1c(-c2sc(Nc3ccccc3)nc2C)nc2ccccc2c1=O [PMCR20],21%,34# %,17%,6%,14%,73** %,9%,109# %,28# %
CCOC(=O)Nc1nc(-c2ccccc2)c(-c2nc3ccccc3c(=O)n2-c2ccccc2C)s1 [PMCR25],23%,56# %,59# %,−5%,28# %,52** %,78# %,34# %,40# %
Cc1cccc(-n2c(-c3sc(NC(=O)c4ccccc4)nc3-c3ccccc3)nc3ccccc3c2=O)c1 [PMCR45],42%,67# %,123# %,19%,20%,63** %,116# %,49# %,41# %
CNc1nc(-c2ccccc2)c(-c2nc3ccccc3c(=O)n2-c2ccccc2OC)s1 [PMCR75],61** %,70# %,15%,46# %,61# %,90** %,31# %,4%,41# %
Cc1nc(Nc2ccc(Cl)cc2)sc1-c1nc2ccccc2c(=O)n1-c1ccccc1Cl [PMCR120],60** %,13%,6%,−4%,85# %,27%,11%,17%,16%
COC(=O)Nc1nc(-c2ccccc2)c(-c2nc3ccccc3c(=O)n2-c2ccccc2Cl)s1 [PMCR122],55** %,45# %,37# %,6%,11%,66** %,20%,210# %,32# %
Cc1ccccc1-n1c(-c2cc(-c3ccncc3)c(N3CCOCC3)s2)nc2ccccc2c1=O [PMCR188],53%,92# %,160# %,0%,0%,0%,148# %,250# %,60# %
COc1ccccc1-n1c(-c2cc(-c3ccc(S(C)(=O)=O)cc3)c(N3CCOCC3)s2)nc2ccccc2c1=O [PMCR204],55** %,70# %,214# %,−8%,12%,33%,164# %,207# %,65# %
COc1ccccc1-n1c(-c2cc(-c3ccncc3)c(N3CCOCC3)s2)nc2ccccc2c1=O [PMCR206],31%,0%,−1%,11%,30# %,33%,0%,147# %,12%
COc1ccc(-n2c(-c3cc(-c4ccc(S(C)(=O)=O)cc4)c(N4CCOCC4)s3)nc3ccccc3c2=O)cc1 [PMCR216],60** %,6%,0%,−21%,16%,10%,−10%,152# %,−1%
O=c1c2ccccc2nc(-c2cc(-c3ccncc3)c(N3CCOCC3)s2)n1-c1ccccc1Cl [PMCR224],80** %,63# %,28# %,−4%,13%,45%,18%,266# %,43# %
O=c1c2ccccc2nc(-c2cc(-c3ccncc3)c(N3CCOCC3)s2)n1-c1ccc(Cl)cc1 [PMCR236],68** %,94# %,39# %,6%,19%,32%,91# %,172# %,60# %
CC(=O)c1ccc(-n2c(-c3cc(-c4ccncc4)c(N4CCOCC4)s3)nc3ccccc3c2=O)cc1 [PMCR242],66** %,90# %,61# %,−28%,14%,84** %,68# %,50# %,60# %
